Test results as given in patent publication US20170290774A1, “NEUROKININ-1 RECEPTOR ANTAGONIST COMPOSITION FOR TREATMENT OF DISEASES AND CONDITIONS OF THE RESPIRATORY TRACT” (PLUS VITECH, S.L., priority 2014, published 2017).

How the values were obtained:
MMP-11 = assay: Immunohistochemistry of MMP-11 in respiratory tract tissue of sodium hypochlorite aerosol-treated rabbits; format: in vivo, New Zealand albino rabbits
From the text: It is known that the factors TGF-α, TGF-β 1, TGF-β 2, TGF-β 3, SPARC, MMP-3; MMP-7, MMP-9, MMP-11, MMP-13 and MMP-14, TGF-β, NF-kB, EGF, MMP-9, VEGF and TNF-α which are produced by lung cells (pneumocytes, fibroblasts and vascular endothelial cells) and inflammatory cells (macrophages, lymphocytes and polymorphonuclear leukocytes) are involved in the pathophysiology and development of said respiratory tract diseases. […] Herein, 27 New Zealand albino rabbits (New Zealand White Rabbit) with an initial average weight about 3 kg were used in this example. All subjects were administered an aerosol of a solution consisting of a mixture of water and sodium hypochlorite (35 g sodium hypochlorite per liter of water) at a rate of 5 mL of said solution by inhalation three times a day for 7 days (days 1 to 7 of experimentation). Subsequently, from days 3 to 7, a group of 3 rabbits (Group 1) was administered an oral dose of 10 mg/kg body weight per day, another group of 3 rabbits (Group 2) was administered an oral dose of 40 mg/kg body weight per day, a third group (Group 3) was administered an oral dose of 80 mg/kg body weight per day and a fourth group (Group 4) was administered an oral dose of 100 mg/kg body weight per day. […] This mixture was administered as an aerosol by inhalation, also from days 3 to 7, to a group of 3 rabbits (group 5) at a dose of 0.05 mg/kg body weight per day, to another group of three rabbits (Group 6) at a dose of 0.1 mg/kg body weight per day, to another group of three rabbits (Group 7) at a dose of 0.2 mg/kg body weight per day and to another group of three rabbits (Group 8) at a dose of 0.4 mg/kg body weight per day. A placebo consisting only of olive oil was administered from days 3 to 7 to a control group of 3 rabbits (placebo group). In parallel, 3 rabbits were kept under identical conditions but were not administered any treatment nor the aforementioned sodium hypochlorite solution (control group). […] On day 7 of the experiment all animals were euthanized and necropsied. […] Samples were taken at the peripheral level of the lung parenchyma, just below the pleural surface. Tissue samples were also taken from the nasal cavity, pharynx, larynx and bronchi. Immunohistochemistry studies were performed for all samples to evaluate the levels of the markers TGF-α, TGF-β 1, TGF-β 2, TGF-β 3 SPARC, MMP-3; MMP-7, MMP-9, MMP-11, MMP-14, TGF-β, TNF-α and VEGF. In said immunohistochemistry studies, a sample of each sample was dehydrated by treatment with increasing concentrations of ethanol and finally xylene. Subsequently said dried samples were embedded in paraffin, thus creating a block. Said paraffin blocks were cut on a microtome to a thickness of 5 μm, and the resulting sections (slices) were placed on slides suitable for conducting immunohistochemistry techniques. Subsequently, the sections were deparaffinised by immersion in xylene and then rehydrated through immersion in a series of solutions containing decreasing concentrations of ethanol and, finally, water. […] The samples were then allowed to cool to room temperature over 10 minutes. Endogenous peroxidase activity was blocked by treatment with 3% hydrogen peroxide over 30 min at room temperature. […] In order to verify the expression of NK1 receptors, the cell samples were incubated in the presence of anti-NK1 antibodies ([…], Sigma-Aldrich) diluted 1:1000 at 4° C. overnight. After this time they were washed in 0.05M Tris buffer at room temperature. Subsequently, Envision System-HRP (Dako) reagents were added for 30 min at room temperature. Once this time had expired, the samples were again washed with 0.05 M Tris buffer, and immunoreactivity was visualized by light microscopy with a chromogenic solution with 3,3'-diaminobenzidine (DAB+; Dako, USA). In order to differentiate the cell nuclei, these were lightly stained with haematoxylin. Samples that were not incubated with the primary antibody, but wherein this was replaced by a non-immune serum were used as negative controls. […]

[1] = Saturation concentration of NK1 receptor antagonists in olive oil; format: physicochemical; details: 25° C.
Protocol: Each of said mixtures was continuously and gently stirred for 10 minutes at ambient temperature (25° C.) and then maintained at rest for 60 minutes. The saturation concentration was considered to be that which was immediately lower in the aforementioned series than a concentration where deposition was observed, but in which no deposition of the active ingredient was observed.

C[C@@H](OC1OCCN(Cc2nc(=O)[nH][nH]2)C1c1ccc(F)cc1)c1cc(C(F)(F)F)cc(C(F)(F)F)c1 (stereo in doubt) [Aprepitant, 5-([(2R,3S)-2-((R)-1-[3,5-bis(trifluoromethyl)phenyl]ethoxy)-3-(4-fluorophenyl)morpholino]methyl)-1H-1,2,4-triazol-3(2H)-one]
Percent increase in MMP-11 with respect to the control group (MMP-11; bronchial tissue, Group 1, oral 10 mg/kg per day): 784.45% | Percent increase in MMP-11 with respect to the control group (MMP-11; bronchial tissue, Group 2, oral 40 mg/kg per day): 673.45% | Percent increase in MMP-11 with respect to the control group (MMP-11; bronchial tissue, Group 3, oral 80 mg/kg per day): 563.45% | Percent increase in MMP-11 with respect to the control group (MMP-11; bronchial tissue, Group 4, oral 100 mg/kg per day): 453.34% | % Med G5/C: percent increase in marker MMP-11 with respect to the control group (MMP-11; bronchial tissue, Group 5): 653.23% | % Med G6/C: percent increase in marker MMP-11 with respect to the control group (MMP-11; bronchial tissue, Group 6): 438.43% | % Med G7/C: percent increase in marker MMP-11 with respect to the control group (MMP-11; bronchial tissue, Group 7): 342.56% | % Med G8/C: percent increase in marker MMP-11 with respect to the control group (MMP-11; bronchial tissue, Group 8): 159.42% | Percent increase in MMP-11 with respect to the control group (MMP-11; laryngeal tissue, Group 1, oral 10 mg/kg per day): 789.61% | Percent increase in MMP-11 with respect to the control group (MMP-11; laryngeal tissue, Group 2, oral 40 mg/kg per day): 576.17% | Percent increase in MMP-11 with respect to the control group (MMP-11; laryngeal tissue, Group 3, oral 80 mg/kg per day): 456.89% | Percent increase in MMP-11 with respect to the control group (MMP-11; laryngeal tissue, Group 4, oral 100 mg/kg per day): 324.89% | Percent increase in MMP-11 with respect to the control group (MMP-11; laryngeal tissue, Group 5, inhalation 0.05 mg/kg per day): 768.34% | Percent increase in MMP-11 with respect to the control group (MMP-11; laryngeal tissue, Group 6, inhalation 0.1 mg/kg per day): 504.34% | Percent increase in MMP-11 with respect to the control group (MMP-11; laryngeal tissue, Group 7, inhalation 0.2 mg/kg per day): 203.23% | Percent increase in MMP-11 with respect to the control group (MMP-11; laryngeal tissue, Group 8, inhalation 0.4 mg/kg per day): 167.36% | Percent increase in MMP-11 with respect to the control group (MMP-11; lung tissue, Group 1, oral 10 mg/kg per day): 522.19% | Percent increase in MMP-11 with respect to the control group (MMP-11; lung tissue, Group 2, oral 40 mg/kg per day): 416.18% | Percent increase in MMP-11 with respect to the control group (MMP-11; lung tissue, Group 3, oral 80 mg/kg per day): 339.86% | Percent increase in MMP-11 with respect to the control group (MMP-11; lung tissue, Group 4, oral 100 mg/kg per day): 251.62% | Percent increase in MMP-11 with respect to the control group (MMP-11; lung tissue, Group 5, inhalation 0.05 mg/kg per day): 520.05% | Percent increase in MMP-11 with respect to the control group (MMP-11; lung tissue, Group 6, inhalation 0.1 mg/kg per day): 222.75% | Percent increase in MMP-11 with respect to the control group (MMP-11; lung tissue, Group 7, inhalation 0.2 mg/kg per day): 169.57% | Percent increase in MMP-11 with respect to the control group (MMP-11; lung tissue, Group 8, inhalation 0.4 mg/kg per day): 128.28% | Percent increase in MMP-11 with respect to the control group (MMP-11; nasal cavity tissue, Group 1, oral 10 mg/kg per day): 1,023.73% | Percent increase in MMP-11 with respect to the control group (MMP-11; nasal cavity tissue, Group 2, oral 40 mg/kg per day): 609.60% | Percent increase in MMP-11 with respect to the control group (MMP-11; nasal cavity tissue, Group 3, oral 80 mg/kg per day): 392.70% | Percent increase in MMP-11 with respect to the control group (MMP-11; nasal cavity tissue, Group 4, oral 100 mg/kg per day): 270.95% | Percent increase in MMP-11 with respect to the control group (MMP-11; nasal cavity tissue, Group 5, inhalation 0.05 mg/kg per day): 1,215.12% | Percent increase in MMP-11 with respect to the control group (MMP-11; nasal cavity tissue, Group 6, inhalation 0.1 mg/kg per day): 489.76% | Percent increase in MMP-11 with respect to the control group (MMP-11; nasal cavity tissue, Group 7, inhalation 0.2 mg/kg per day): 266.47% | Percent increase in MMP-11 with respect to the control group (MMP-11; nasal cavity tissue, Group 8, inhalation 0.4 mg/kg per day): 133.33% | Percent increase in MMP-11 with respect to the control group (MMP-11; pharyngeal tissue, Group 1, oral 10 mg/kg per day): 1,387.65% | Percent increase in MMP-11 with respect to the control group (MMP-11; pharyngeal tissue, Group 2, oral 40 mg/kg per day): 1,980.45% | Percent increase in MMP-11 with respect to the control group (MMP-11; pharyngeal tissue, Group 3, oral 80 mg/kg per day): 980.34% | Percent increase in MMP-11 with respect to the control group (MMP-11; pharyngeal tissue, Group 4, oral 100 mg/kg per day): 670.45% | Percent increase in MMP-11 with respect to the control group (MMP-11; pharyngeal tissue, Group 5, inhalation 0.05 mg/kg per day): 1,324.23% | Percent increase in MMP-11 with respect to the control group (MMP-11; pharyngeal tissue, Group 6, inhalation 0.1 mg/kg per day): 904.21% | Percent increase in MMP-11 with respect to the control group (MMP-11; pharyngeal tissue, Group 7, inhalation 0.2 mg/kg per day): 529.34% | Percent increase in MMP-11 with respect to the control group (MMP-11; pharyngeal tissue, Group 8, inhalation 0.4 mg/kg per day): 109.43% | Saturation concentration [1]: 60 nM
